Laboratory results: US20120190707A1, “SELECTIVE INHIBITORS OF AKT AND METHODS OF USING SAME” (priority 2008, published 2012)

What was measured:
PRAS40 [1] = experiment: PRAS40 phosphorylation by western analysis in UACC903 cells; assay type: cell-based, human; details: UACC903, 10.micro.M
Description: (§1) FIG. 6 describes the effect of BI-69A11 on phosphorylation and total levels of AKT in UACC 903 (PTEN−) cells. (A) UACC903 and the modified clone 29-1 (PTEN+) cells were exposed to 10 micro.M BI-69A11 and 50 micro.M LY294002 (a PI3K inhibitor) and the levels of pAKT473 and total AKT determined by western analysis. […] (SF=Serum Free). (B) BI-69A11 inhibits PRAS40 phosphorylation. UACC903 melanoma cells or 29-1 cells (PTEN+) were subjected to treatment with IGF-1 (20 ng/mL) and the level of PRAS40 phosphorylation was assessed. […] The cells were collected, lysed and levels of pPRAS40 and total PRAS40 determined by western analysis. (C) AKT association with HSP90 is inhibited by BI-69A11. Human melanoma cells were treated with BI-69A11 (10.micro.M) or DMSO control for 4 h, followed by protein preparation and immunoprecipitation using antibodies to pan-AKT. MG132 treatment, when used, initiated 1 h prior to treatment and lasted up to the preparation of proteins (total of 5 h). The right panel depicts analysis of total lysates.
Thus, we set to test the possibility that BI-69A11's ability to inhibit AKT activity may stem from inhibition of AKT protein expression (see data below). We thus assessed whether inhibition of AKT Ser473 phosphorylation coincides with its activity, namely the phosphorylation of known AKT substrates. […]

CHK2 = CHK2 (Homo sapiens, UniProt O96017); experiment: Invitrogen SelectScreen Kinase Profiling Service; assay type: biochemical
CHK2, sequence (O96017 whole entry): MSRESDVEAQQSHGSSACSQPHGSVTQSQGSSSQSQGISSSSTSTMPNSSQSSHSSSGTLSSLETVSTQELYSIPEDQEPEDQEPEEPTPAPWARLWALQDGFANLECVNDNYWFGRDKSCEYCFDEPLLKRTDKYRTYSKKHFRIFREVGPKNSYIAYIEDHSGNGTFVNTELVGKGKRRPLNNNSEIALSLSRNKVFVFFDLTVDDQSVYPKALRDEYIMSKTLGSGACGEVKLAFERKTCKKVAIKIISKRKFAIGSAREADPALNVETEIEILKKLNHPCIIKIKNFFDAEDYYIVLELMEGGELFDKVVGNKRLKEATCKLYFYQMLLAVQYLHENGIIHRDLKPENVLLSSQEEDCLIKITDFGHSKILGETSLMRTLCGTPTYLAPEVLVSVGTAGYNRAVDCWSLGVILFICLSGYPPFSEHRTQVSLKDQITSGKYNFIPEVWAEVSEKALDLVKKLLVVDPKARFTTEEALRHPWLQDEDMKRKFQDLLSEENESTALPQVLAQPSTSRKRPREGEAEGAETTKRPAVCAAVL
Description: In addition to its inhibition of AKT, BI-69A11 was tested for inhibition of additional protein kinases using the Invitrogen SelectScreen Kinase Profiling Service. The Ser/Thr protein kinase, Checkpoint Kinase 2 (CHK2), is an important component in the cellular response to DNA damage. In response to genotoxic stresses such as g-irradiation, which causes double stranded DNA breaks, the Ataxia Telangiectasia Mutated (ATM) protein kinase is activated, which in turn phosphorylates a number of downstream effectors, such as CHK2. Activation of the ATM-CHK2 axis enforces the DNA damage checkpoint response, halting the cell cycle in order to initiate DNA repair.
To accomplish this, we g-irradiated vehicle- or BI69A11-treated cells and examined ATM and CHK2 phosphorylation, a well-characterized surrogate of activation (FIG. 13). In vehicle-treated cells, g-irradiation led to the robust phosphorylation of ATM and CHK2.

p53 = experiment: Levels of HSP90 client protein p53; assay type: cell-based; details: data not shown
Description: Among cellular proteins implicated in the regulation of AKT levels is the cellular chaperone HSP90. Inhibition of HSP90 chaperone function, as commonly achieved by the geldanamycin antibiotic, interferes with the conformational maturation and refolding of its associated proteins, thereby promoting their degradation (Munster et al., 2002; Neckers and Neckers, 2003). […] Thus we assessed whether association of AKT with HSP90 could be affected by BI-69A11. Immunoprecipitation of AKT from melanoma cells identified HSP90 in the immunoprecipitated material. Such association was however abolished following treatment with the BI-69A11 inhibitor (FIG. 6C). […] To this end, we also performed the experiment in the presence of the proteasome inhibitor MG132.

NRAS/Ink4a mice = experiment: Melanoma development in NRAS/Ink4a mice; assay type: in vivo
Description: The NRAS/Ink4a mice harbor a Q61K NRAS activating mutation, as is seen in 15% of human melanomas, on an Ink4a-deficient background, which mimics the mutations often seen in this locus (p16) in human melanoma.
The NRAS/Ink4a mouse develops melanoma with penetrance of about 25-50% which is often accompanied by metastasis to the lymph nodes.
To examine the effect of BI-69A11 treatment on in vivo melanoma development, BI-69A11 was administered to a cohort of 30 mice twice per week (IP, 0.5 mg/kg), starting at week 28 after NRAS expression. A control group of 30 mice received the control vehicle formulation. In this model, by 28 weeks many mice already developed melanoma. Those were not included in our study which was restricted to animals that have not yet developed melanoma. Nevertheless, in a clinical setting, preventive treatment could be administered prior to tumor development, at a stage where early stages of development had been initiated.
NRAS expression was induced in NRAS/INK4a mice (time 0) and the mice were maintained for 40 weeks. Starting at 28 weeks, animals received BI-69A11 at 0.5 mg/kg by IP injection twice weekly.
NRAS expression was induced in NRAS/INK4a mice and 28 weeks later treatment with BI-69A11 was initiated. Internal tumors developed in this model were fibrosarcomas, whereas the skin tumors were melanomas (confirmed by immunostaining with S100 and DCT).
An additional experimental group included animals from the same melanoma model, albeit, those were treated earlier (after 10 weeks rather than 28).

PRAS40 [2] = experiment: IGF-1 induced PRAS40 phosphorylation by western analysis in 29-1 cells; assay type: cell-based, human; details: IGF-1 (20 ng/mL), 10.micro.M
Description: as §1
We next tested the effect of BI-69A11 in 29-1 cells which are derivative of UAC903 that were reconstituted with chromosome 10 carrying the wt PTEN. Thus, 29-1 cells no longer express a constitutively active form of AKT (Robertson et al., 1998). To activate AKT, 29-1 cells were treated with IGF-1 (FIG. 6B). […]

[3] = IP 0.5 mg/kg twice per week from week 28

O=C(/C=C/c1nc2ccccc2[nH]1)c1c(O)nc2ccc(Cl)cc2c1-c1ccccc1 [Compound 2, (E)-3-(3-(1H-benzo[d]imidazol-2-yl)acryloyl)-6-chloro-4-phenylquinolin-2(1H)-one]
phosphorylation of PRAS40 (PRAS40 [1]): markedly inhibited
kinase profiling result for CHK2 (CHK2): possible target
level of p53 (p53): limited effect
inhibition in the fibrosarcoma group (NRAS/Ink4a mice; [3]): ~50%
inhibition of melanomas (NRAS/Ink4a mice; [3]): ~68%
share of the 25 melanomas that developed in the treated group (NRAS/Ink4a mice; [3]): 32%
total number of tumors developed (NRAS/Ink4a mice; IP 0.5 mg/kg twice per week from week 28, up to 40 weeks, 30 tumors in control group): 19
number of melanomas (NRAS/Ink4a mice; IP 0.5 mg/kg twice per week from week 28, control 17): 8
prevention with administration after 10 weeks compared with after 28 weeks (NRAS/Ink4a mice; mouse, in vivo): as effective as
phosphorylation of PRAS40 (PRAS40 [2]): effectively inhibited
